Assay results from paper PMC9029618, “Attenuation of Scopolamine-Induced Amnesia via Cholinergic Modulation in Mice by Synthetic Curcumin Analogs” (Molecules, 2022).
Like-named read-outs stand apart in the source and are kept apart here.

Tests used:
AChE = target: T1, AChE (Electrophorus electricus, UniProt O42275); assay: biochemical
T1 construct: The enzymes AChE and BuChE were obtained from electric eel and equine serum, respectively; from tissue; host or cells: electric eel
Method: (§1) The in vitro cholinesterase assay of the synthesized curcumin analogs were carried out according to the Ellman’s method with slight modification. The enzymes AChE and BuChE were obtained from electric eel and equine serum, respectively. […] The final concentrations of AChE 0.03 U/mL and 0.01 U/mL of BuChE were achieved. […] The experiment was started by adding 5 µL enzyme solutions to cuvette, then 205 µL test sample and 5 µL DTNB reagents were added. Substrate solution (5 µL) was added, and the solution mixture was kept in a water bath for 15 min at 30 °C.

BuChE = target: T2, BuChE (Equus caballus, UniProt P81908); assay: biochemical
T2 construct: The enzymes AChE and BuChE were obtained from electric eel and equine serum, respectively; from tissue; host or cells: equine serum
Method: as §1

[1] = tested on: scopolamine-induced amnesic mice; assay: Elevated plus maze (EPM), scopolamine-induced amnesia; assay type: in vivo
Source text: Elevated plus maze paradigm is an important behavioral model for evaluation of anti-amnesic potentials in mice. This apparatus comprised of two open and two closed arms with dimensions of 16 cm × 5 cm × 12 cm and elevated 25 cm from the floor on a wooden stand. The EPM was designed in plus shape from two acrylic sheets having a central platform with dimensions of 5 cm × 5 cm. Initially, mice were placed in one of the open arms in such a way that it was directed away from the central platform. Then TLT was recorded after the mice moved to the closed arm, with their four legs from the open arm and then the mice were returned to their home cage. The time of exploration of the apparatus for each animal was 90 s. […] Reduction of TLT indicated memory-enhancing effect of the test samples. The inflexion ratio (IR) was calculated as: IR=L0−L1/L0 where L1 presents the initial transfer latency (s), and L0 is the retention transfer latency (s).

[2] = tested on: scopolamine-induced amnesic mice; assay: Y-maze test, scopolamine-induced amnesia
Method: A total of sixteen groups of mice, with six in each group, were used in the experiment. Vehicle treated group (Normal control group) were administered 10 mL/kg (p.o) of normal saline. […] Sample treatment groups were administered 7.5 mg/kg and 15 mg/kg (p.o) of synthesized compounds, respectively.
The dimensions of the arms were 15.5 cm high, 6 cm wide, 20 cm long and connected with each other with an angle of 120°. This test was conducted for a 5 min duration for each animal. The order and number of arm entries made by each animal after placing in one arm were recorded. Complete arm entry in any given arm was considered to be when the hind paws were completely inside, and the alternation was the consecutive arm entries into three different arms by each mouse. Ethanol 70% v/v solution was used to clean the Y-maze arena to avoid olfactory cues between each test. […] Mice were freely allowed to explore the objects when they were initially placed at the center of the apparatus. The formula was used to calculate the %SAP by recording the same arm returns (SAR), alternate arm returns (AAR) and the number of arm entries.

[3] = tested on: scopolamine-induced amnesic mice; assay: Novel object recognition test (NORT), scopolamine-induced amnesia; assay type: in vivo
Method: In this study, the memory-enhancing potentials of synthesized compounds were determined using novel object recognition test mice model. Dimensions of the apparatus were 40 cm × 40 cm × 30 cm and designed from Plexiglass in a box shape. After acclimatization, the mice were habituated with the apparatus for 2–3 min one day before the test. Initially, in the sample phase, two identical objects were placed in the two corners of the apparatus and the mice were allowed to freely explore the apparatus. The objects in the apparatus were explored by each animal either by touching the objects or keeping their noses within 2 cm of them. […] Mice were allowed again to freely explore both the objects in a similar way as in sample phase, and the time spent by each animal exploring the novel and familiar object (F) was recorded.
The following formula was used for calculation of discrimination index. D1=N—F /N+F
D1 = discrimination index; N = novel object; F = familiar object

[4] = target: T3, AChE activity in the hippocampi of mice brains (Mus musculus, UniProt P21836); assay type: in vivo; conditions: ex vivo, vs scopolamine treated group, n = 6
T3 construct: from tissue; host or cells: mouse bilateral hippocampus homogenate, supernatant
T3 sequence (P21836 32-614): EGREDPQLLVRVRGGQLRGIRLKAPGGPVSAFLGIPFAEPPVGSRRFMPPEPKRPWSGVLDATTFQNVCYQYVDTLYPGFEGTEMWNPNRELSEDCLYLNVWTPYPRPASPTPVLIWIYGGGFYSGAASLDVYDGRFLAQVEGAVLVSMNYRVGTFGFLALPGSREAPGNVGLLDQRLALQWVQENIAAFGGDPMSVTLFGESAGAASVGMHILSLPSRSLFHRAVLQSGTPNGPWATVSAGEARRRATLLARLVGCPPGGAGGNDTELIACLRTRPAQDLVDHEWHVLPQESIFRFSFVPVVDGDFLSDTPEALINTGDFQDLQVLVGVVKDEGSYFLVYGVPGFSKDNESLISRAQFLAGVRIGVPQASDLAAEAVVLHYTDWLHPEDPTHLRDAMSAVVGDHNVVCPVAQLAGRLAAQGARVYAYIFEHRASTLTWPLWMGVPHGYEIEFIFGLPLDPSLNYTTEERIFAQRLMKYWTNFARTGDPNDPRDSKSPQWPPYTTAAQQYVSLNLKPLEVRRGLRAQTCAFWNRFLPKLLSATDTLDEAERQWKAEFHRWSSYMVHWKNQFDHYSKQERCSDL
Method: (§2) After the behavioral study, the mice were sacrificed by decapitation, providing a quick and painless death by cervical dislocation. The isolated brain of each animal in chilled phosphate buffer saline was subjected into biomarker assays using AChE and BuChE enzymes.
Mice were sacrificed within 24 h of the behavior study; brains were dissected and stored at −80 °C. […] Supernatant was used for the measurement of cholinesterase (AChE and BuChE) activity.
Acetylcholine/Acetyl cholinesterase assay Kit was used for the determination of AChE activity, according to the standard procedure. The assay was carried out using 96-well plate, and every reaction comprised of 100 µL sample, 200 µM Amplex Red reagent, 50 µM of acetylcholine, 1 U/mL horseradish peroxidase (HRP) and 0.1 U/mL choline oxidase in buffer solution. Incubation period for the reaction mixture was 20 min at room temperature in the dark. The fluorescence intensity at 560 nm excitation and 580 nm emission wavelength was measured.

[5] = target: T4, BuChE activity in the hippocampi of mice brains (Mus musculus, UniProt Q03311); assay: Ex vivo BuChE activity in the brain hippocampus; conditions: vs scopolamine treated group, n = 6
T4 construct: from tissue; host or cells: mouse bilateral hippocampus homogenate, supernatant
Method: as §2
Mice were sacrificed within 24 h of the behavior study; brains were dissected and stored at −80 °C. The bilateral hippocampus was homogenized before the assay into volumes of 0.01 M phosphate buffer (2.7 mM KCl, 137 mM NaCl, 2 mM KH2PO4, 10 mM Na2HPO4) and centrifuged at 4 °C for 30 min at 12,000× g. Supernatant was used for the measurement of cholinesterase (AChE and BuChE) activity.
Butyrylcholinesterase (BuChE) activity of the synthesized compounds were measured according to Ellman method with slight modification. BuSCh was hydrolyzed by BuChE and choline iodide produced, which reacted with DNTB, and then the production of TNB. The TNB was quantitated by calorimetry that indicated the BuChE activity. BuChE assay was accomplished in 96-well plate and every reaction mixture contained 40 µL sample, 80 µL DTNB (0.25 mg/mL) and 70 µL BuSCh (7.5 mM). The absorbance was determined at 37 °C after incubation for 60 min.

[6] = AChE from electric eel, Ellman's method, n = 3, read-out: AChEI (IC50 (nM))
[7] = BuChE from equine serum, Ellman's method, n = 3, read-out: BuChEI (IC50 (nM))
[8] = 7.5 mg/kg p.o. 7 days, scopolamine 1 mg/kg i.p.
[9] = 15 mg/kg p.o. 7 days, scopolamine 1 mg/kg i.p.
[10] = long-term memory (after 24 h), 7.5 mg/kg
[11] = long-term memory (after 24 h), 15 mg/kg
[12] = short-term memory, donepezil 2 mg/kg
[13] = short-term memory, test phase, donepezil 2 mg/kg

T1 sequence (O42275 24-633): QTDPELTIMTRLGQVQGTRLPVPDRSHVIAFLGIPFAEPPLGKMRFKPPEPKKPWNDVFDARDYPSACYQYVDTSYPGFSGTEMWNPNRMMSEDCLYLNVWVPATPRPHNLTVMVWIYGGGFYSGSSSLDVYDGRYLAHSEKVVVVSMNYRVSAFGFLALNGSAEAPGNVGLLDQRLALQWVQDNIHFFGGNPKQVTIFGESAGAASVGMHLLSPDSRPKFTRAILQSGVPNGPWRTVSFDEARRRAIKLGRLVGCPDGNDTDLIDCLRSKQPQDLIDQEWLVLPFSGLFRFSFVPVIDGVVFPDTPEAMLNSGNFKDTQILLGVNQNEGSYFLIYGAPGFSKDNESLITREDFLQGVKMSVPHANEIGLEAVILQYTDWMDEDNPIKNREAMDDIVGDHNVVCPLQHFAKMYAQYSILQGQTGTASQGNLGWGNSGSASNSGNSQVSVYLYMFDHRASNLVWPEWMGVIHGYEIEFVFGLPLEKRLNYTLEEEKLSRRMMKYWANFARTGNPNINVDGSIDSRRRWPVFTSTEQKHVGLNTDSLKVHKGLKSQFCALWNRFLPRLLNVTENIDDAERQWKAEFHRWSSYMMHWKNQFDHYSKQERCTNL
T2 sequence (P81908 whole entry): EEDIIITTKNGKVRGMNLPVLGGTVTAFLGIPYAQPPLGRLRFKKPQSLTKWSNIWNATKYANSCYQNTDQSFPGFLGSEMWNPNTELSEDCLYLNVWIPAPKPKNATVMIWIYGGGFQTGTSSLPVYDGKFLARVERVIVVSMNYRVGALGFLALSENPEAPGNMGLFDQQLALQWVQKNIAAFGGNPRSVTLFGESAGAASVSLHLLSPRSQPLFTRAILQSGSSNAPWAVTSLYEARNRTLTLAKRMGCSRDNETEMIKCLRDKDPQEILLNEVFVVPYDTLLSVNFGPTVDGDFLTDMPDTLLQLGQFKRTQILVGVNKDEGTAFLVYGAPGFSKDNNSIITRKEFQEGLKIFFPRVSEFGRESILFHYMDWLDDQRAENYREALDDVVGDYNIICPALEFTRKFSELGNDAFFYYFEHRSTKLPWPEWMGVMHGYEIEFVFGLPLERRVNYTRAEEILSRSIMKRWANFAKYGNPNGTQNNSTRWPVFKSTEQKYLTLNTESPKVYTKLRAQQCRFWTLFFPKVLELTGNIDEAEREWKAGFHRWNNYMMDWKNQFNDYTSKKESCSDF
T4 sequence (Q03311 30-603): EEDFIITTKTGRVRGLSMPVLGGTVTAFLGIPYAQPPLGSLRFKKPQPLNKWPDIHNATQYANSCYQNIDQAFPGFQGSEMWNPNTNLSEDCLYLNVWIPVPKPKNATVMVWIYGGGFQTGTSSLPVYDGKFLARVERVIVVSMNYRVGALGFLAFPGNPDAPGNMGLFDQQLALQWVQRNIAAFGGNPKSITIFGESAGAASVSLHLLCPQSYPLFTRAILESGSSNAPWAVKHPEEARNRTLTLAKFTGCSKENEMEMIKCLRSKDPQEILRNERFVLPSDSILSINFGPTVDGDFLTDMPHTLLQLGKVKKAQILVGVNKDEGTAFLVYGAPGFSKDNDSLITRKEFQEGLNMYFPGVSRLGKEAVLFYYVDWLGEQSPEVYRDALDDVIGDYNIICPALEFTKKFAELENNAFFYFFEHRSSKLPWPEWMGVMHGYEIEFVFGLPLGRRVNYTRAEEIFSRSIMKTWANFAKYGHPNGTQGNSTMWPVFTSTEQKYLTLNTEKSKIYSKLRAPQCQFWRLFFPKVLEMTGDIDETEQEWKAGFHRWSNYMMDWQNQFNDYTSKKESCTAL

| Compound | IC50 (AChE; [6]) [nM] | IC50 (BuChE; [7]) [nM] | effect on TLT vs amnesic group [1, 8] | effect on TLT vs amnesic group [1, 9] | % spontaneous alternation performance (% SAP) [2, 8] | % spontaneous alternation performance (% SAP) [2, 9] | discrimination index (DI) [3, 10] | discrimination index (DI) [3, 11] | discrimination index (DI) ([3]; short-term memory, 7.5 mg/kg) | discrimination index (DI) ([3]; short-term memory, 15 mg/kg) | further results |
| --- | --- | --- | --- | --- | --- | --- | --- | --- | --- | --- | --- |
| O=C(/C=C/c1ccccc1)CC(=O)/C=C/c1ccccc1 [Compound 1a, (1E,6E)-1,7-diphenylhepta-1,6-diene-3,5-dione] | 2620 | 5350 | non-significant | non-significant | poor response | poor response | no significant change | no significant change | 54.53% | 55.10% | – |
| Cc1ccc(/C=C/C(=O)CC(=O)/C=C/c2ccc(C)cc2)cc1 [Compound 1b, (1E,6E)-1,7-di-p-tolylhepta-1,6-diene-3,5-dione] | 734 | 2160 | non-significant | poor response | poor response | poor response | 52.45% | 53.61% | 55.68% | 57.47% | effect on scopolamine-increased AChE activity in hippocampus [4]: markedly reduced the increased activity of AChE |
| COc1ccc(/C=C/C(=O)CC(=O)/C=C/c2ccc(OC)cc2)cc1 [Compound 1c, (1E,6E)-1,7-bis(4-methoxyphenyl)hepta-1,6-diene-3,5-dione] | 467 | 1360 | reduced TLT | reduced TLT | 47.16 ± 2.77% | 62.33 ± 184% | 60.58% | 62.28% | 60.16% | 61.25% | effect on scopolamine-increased AChE activity in hippocampus [4]: markedly reduced the increased activity of AChE; effect on scopolamine-increased BuChE activity in hippocampus [5]: decreased the increased BuChE activity |
| CN(C)c1ccc(/C=C/C(=O)CC(=O)/C=C/c2ccc(N(C)C)cc2)cc1 [Compound 1e, (1E,6E)-1,7-bis(4-(dimethylamino)phenyl)hepta-1,6-diene-3,5-dione] | 3270 | 6640 | non-significant | non-significant | non-significant | non-significant | no significant change | no significant change | no promising potential | no promising potential | – |
| O=C(/C=C/c1ccc([N+](=O)[O-])cc1)CC(=O)/C=C/c1ccc([N+](=O)[O-])cc1 [Compound 1f, (1E,6E)-1,7-bis(4-nitrophenyl)hepta-1,6-diene-3,5-dione] | – | – | non-significant | non-significant | non-significant | non-significant | no significant change | no significant change | no promising potential | no promising potential | IC50 (AChE): 5840 nM; IC50 (BuChE): 9660 nM |
| COc1cc2c(cc1OC)C(=O)C(CC1CCN(Cc3ccccc3)CC1)C2 (stereo not drawn) [Donepezil, reference compound] | – | – | – | – | – | – | – | – | – | – | transfer latency time (TLT) ([1]; donepezil 2 mg/kg p.o. 7 days, scopolamine 1 mg/kg i.p., p < 0.001 vs amnesic group): 34.57 ± 1.93 s; % DI, familiar object [3, 12]: 32.32%; % DI, novel object [3, 12]: 65.26%; time spent exploring the familiar object [3, 13]: 11.49 ± 1.39 s; time spent exploring the novel object [3, 13]: 21.59 ± 1.44 s |
| CN1[C@@H]2C[C@@H](OC(=O)[C@H](CO)c3ccccc3)C[C@H]1[C@@H]1O[C@@H]12 [Scopolamine] | – | – | – | – | – | – | – | – | – | – | TLT vs vehicle treated group ([1]; scopolamine 1 mg/kg i.p. alone (amnesic group)): significantly higher transfer latency time; % spontaneous alternation performance (% SAP) ([2]; scopolamine 1 mg/kg i.p. alone (amnesic group), normal controls 70.16 ± 4.58): 37.66 ± 3.94% |
